Measurements taken from ChEMBL document CHEMBL4270607, “Identification of crizotinib derivatives as potent SHIP2 inhibitors for the treatment of Alzheimer's disease” (Eur J Med Chem, 2018).
Activity calls are given as the source filed them. No cut-off for these calls is given here.

Legend:
[1] = Metabolic stability in human liver microsomes assessed as parent compound remaining at 1 uM preincubated for 5 mins followed by NADPH addition measured after 30 mins by LC-MS/MS analysis; format: ADME, microsome; conditions: read-out: Stability
CYP2D6 = CYP2D6 (Homo sapiens, UniProt P10635); experiment: Inhibition of recombinant human CYP2D6 assessed as remaining enzyme activity at 10 uM preincubated for 5 mins followed by NADPH addition measured after 20 mins by fluorescence assay relative to control; format: ADME; conditions: read-out: Activity
Chain of CYP2D6 (P10635 whole entry): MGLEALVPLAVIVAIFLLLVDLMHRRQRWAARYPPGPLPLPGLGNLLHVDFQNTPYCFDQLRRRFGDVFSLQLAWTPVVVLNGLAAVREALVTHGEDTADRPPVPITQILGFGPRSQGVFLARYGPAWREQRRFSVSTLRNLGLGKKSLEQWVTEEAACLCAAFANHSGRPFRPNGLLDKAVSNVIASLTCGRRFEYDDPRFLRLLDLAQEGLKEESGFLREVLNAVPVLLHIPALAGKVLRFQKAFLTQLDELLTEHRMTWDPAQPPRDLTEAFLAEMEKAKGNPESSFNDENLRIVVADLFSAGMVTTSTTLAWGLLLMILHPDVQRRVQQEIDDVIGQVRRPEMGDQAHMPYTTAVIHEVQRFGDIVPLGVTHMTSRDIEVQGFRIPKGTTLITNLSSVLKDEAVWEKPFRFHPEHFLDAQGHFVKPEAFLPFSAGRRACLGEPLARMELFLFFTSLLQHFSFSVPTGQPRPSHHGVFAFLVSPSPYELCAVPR

[2] = molecular target: T1, Phosphatidylinositol 3,4,5-trisphosphate 5-phosphatase 2 (Mus musculus) (UniProt Q6P549); experiment: Inhibition of SHIP2 in mouse HT22 cells assessed as decrease in PI(3,4)P2 production at 10 uM after 24 hrs by mKate2-TAPP1-PH based fluorescence imaging method; format: cell-based
T1 sequence (whole entry): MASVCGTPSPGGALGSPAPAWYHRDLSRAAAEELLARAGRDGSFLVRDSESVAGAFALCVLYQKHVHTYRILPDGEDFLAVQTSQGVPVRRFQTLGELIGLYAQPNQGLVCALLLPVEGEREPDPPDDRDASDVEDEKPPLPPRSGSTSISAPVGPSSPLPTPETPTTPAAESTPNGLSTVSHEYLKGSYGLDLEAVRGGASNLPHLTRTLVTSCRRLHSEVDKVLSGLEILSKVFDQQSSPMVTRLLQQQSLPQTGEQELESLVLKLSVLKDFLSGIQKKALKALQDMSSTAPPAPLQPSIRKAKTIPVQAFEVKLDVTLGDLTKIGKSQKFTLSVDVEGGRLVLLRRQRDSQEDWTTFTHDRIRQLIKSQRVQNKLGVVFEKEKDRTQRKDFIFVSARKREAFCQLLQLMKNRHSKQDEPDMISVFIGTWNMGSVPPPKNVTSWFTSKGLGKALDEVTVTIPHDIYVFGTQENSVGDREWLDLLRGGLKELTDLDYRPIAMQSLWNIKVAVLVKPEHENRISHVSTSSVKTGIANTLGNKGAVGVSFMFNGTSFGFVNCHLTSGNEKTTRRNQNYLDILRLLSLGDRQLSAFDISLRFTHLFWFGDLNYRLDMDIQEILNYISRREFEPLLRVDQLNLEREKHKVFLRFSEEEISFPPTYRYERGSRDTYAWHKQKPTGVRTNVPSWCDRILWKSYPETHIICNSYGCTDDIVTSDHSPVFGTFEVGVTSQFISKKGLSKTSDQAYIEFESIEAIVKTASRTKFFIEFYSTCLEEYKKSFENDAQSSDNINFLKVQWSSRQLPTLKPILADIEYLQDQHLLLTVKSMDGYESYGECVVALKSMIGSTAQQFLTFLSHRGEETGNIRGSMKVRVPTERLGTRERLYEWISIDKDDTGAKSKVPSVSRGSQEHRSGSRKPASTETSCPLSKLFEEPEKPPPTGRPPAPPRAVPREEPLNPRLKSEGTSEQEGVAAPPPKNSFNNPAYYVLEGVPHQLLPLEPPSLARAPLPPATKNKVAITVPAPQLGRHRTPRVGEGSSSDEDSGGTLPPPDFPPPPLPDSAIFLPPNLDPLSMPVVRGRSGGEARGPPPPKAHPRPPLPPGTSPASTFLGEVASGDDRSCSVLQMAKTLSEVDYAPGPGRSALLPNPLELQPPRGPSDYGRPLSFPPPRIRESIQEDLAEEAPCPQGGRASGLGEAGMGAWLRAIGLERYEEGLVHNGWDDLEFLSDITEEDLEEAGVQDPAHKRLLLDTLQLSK

CYP2C19 = CYP2C19 (Homo sapiens, UniProt P33261); experiment: Inhibition of recombinant human CYP2C19 assessed as remaining enzyme activity at 10 uM preincubated for 5 mins followed by NADPH addition measured after 20 mins by fluorescence assay relative to control; format: ADME; conditions: read-out: Activity
Chain of CYP2C19 (P33261 whole entry): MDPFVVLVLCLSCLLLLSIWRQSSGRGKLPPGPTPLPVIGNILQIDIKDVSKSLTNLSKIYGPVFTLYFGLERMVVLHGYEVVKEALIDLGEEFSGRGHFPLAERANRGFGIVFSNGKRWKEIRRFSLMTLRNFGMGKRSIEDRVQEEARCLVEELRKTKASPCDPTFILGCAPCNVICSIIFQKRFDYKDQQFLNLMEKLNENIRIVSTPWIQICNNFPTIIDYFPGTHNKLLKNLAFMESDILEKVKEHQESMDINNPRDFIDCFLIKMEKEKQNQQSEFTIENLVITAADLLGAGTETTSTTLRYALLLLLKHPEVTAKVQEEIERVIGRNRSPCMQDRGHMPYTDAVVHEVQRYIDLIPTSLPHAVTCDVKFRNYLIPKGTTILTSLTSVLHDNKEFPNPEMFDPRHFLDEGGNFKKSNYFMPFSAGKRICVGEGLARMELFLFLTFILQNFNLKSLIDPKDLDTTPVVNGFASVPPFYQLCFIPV

[3] = Metabolic stability in dog liver microsomes assessed as parent compound remaining at 1 uM preincubated for 5 mins followed by NADPH addition measured after 30 mins by LC-MS/MS analysis; format: ADME, Canis lupus familiaris, microsome; conditions: read-out: Stability
CYP2C9 = CYP2C9 (Homo sapiens, UniProt P11712); experiment: Inhibition of recombinant human CYP2C9 assessed as remaining enzyme activity at 10 uM preincubated for 5 mins followed by NADPH addition measured after 20 mins by fluorescence assay relative to control; format: ADME; conditions: read-out: Activity
Chain of CYP2C9 (P11712 whole entry): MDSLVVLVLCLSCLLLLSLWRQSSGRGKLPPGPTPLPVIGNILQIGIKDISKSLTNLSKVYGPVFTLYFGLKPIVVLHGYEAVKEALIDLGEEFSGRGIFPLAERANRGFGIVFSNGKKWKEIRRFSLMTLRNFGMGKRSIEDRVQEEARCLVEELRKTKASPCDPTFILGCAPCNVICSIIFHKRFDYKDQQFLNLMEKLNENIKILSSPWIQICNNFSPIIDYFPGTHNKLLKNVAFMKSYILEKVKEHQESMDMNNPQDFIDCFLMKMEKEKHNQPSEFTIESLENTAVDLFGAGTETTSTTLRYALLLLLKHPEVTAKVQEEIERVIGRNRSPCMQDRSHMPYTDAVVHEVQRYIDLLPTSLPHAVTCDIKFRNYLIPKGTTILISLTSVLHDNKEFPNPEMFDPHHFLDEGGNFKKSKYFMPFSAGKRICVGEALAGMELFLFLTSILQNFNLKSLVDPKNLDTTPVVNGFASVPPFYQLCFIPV

[4] = Metabolic stability in mouse liver microsomes assessed as parent compound remaining at 1 uM preincubated for 5 mins followed by NADPH addition measured after 30 mins by LC-MS/MS analysis; format: ADME, microsome; conditions: read-out: Stability
CYP3A4 = CYP3A4 (Homo sapiens, UniProt P08684); experiment: Inhibition of recombinant human CYP3A4 assessed as remaining enzyme activity at 10 uM preincubated for 5 mins followed by NADPH addition measured after 20 mins by fluorescence assay relative to control; format: ADME; conditions: read-out: Activity
Chain of CYP3A4 (P08684 whole entry): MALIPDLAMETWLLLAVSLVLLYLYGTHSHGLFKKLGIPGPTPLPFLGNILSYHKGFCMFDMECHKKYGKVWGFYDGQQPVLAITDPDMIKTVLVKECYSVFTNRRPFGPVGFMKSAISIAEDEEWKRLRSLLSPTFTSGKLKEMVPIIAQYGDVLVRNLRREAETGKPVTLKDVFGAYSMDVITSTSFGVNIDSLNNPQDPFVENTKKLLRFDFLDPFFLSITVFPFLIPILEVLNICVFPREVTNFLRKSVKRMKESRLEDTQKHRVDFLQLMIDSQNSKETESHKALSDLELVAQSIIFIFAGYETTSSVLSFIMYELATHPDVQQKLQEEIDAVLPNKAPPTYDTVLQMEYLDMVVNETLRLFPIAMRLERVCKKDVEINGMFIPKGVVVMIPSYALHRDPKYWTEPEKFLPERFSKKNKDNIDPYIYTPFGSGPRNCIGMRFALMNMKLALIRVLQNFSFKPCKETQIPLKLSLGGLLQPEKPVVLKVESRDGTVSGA

remaining at 0.5 h, 1 µM [1] [%]	activity at 20 min, 10 µM (CYP2D6) [%]	inhibition [2]	activity at 20 min, 10 µM (CYP2C19) [%]	remaining at 0.5 h, 1 µM [3] [%]	activity at 20 min, 10 µM (CYP2C9) [%]	remaining at 0.5 h, 1 µM [4] [%]	activity at 20 min, 10 µM (CYP3A4) [%]	Structure (SMILES)
77	94.4	Active	36.4	23.1	66.7	46.5	80.2	C[C@@H](Oc1cncc(-c2cnc(N)nc2)c1)c1c(Cl)ccc(F)c1Cl
74.5	93.1	Active	89.9	24.3	97.2	38.8	96.7	N#Cc1ccc(-c2cncc(OCc3ccc(Cl)cc3Cl)c2)s1
44.1	82.7	Active	16.4	5.7	10.9	6.4	20.2	O=C(NCc1c(F)cccc1F)c1sccc1OCc1ccc(Cl)cc1Cl
